The assay deals with T1, EtoX (TRAP transporter, periplasmic ethanolamine binding protein, MED193_10041).
T1 construct: full-length codon optimized, C-terminal His-tag
Kind of assay: microscale thermophoresis with purified recombinant EtoX. The arrangement: species or system Phaeobacter sp. MED193. A general note: In MST a laser heats a spot of the sample, and binding alters the fluorescence response.

Usually Kd stands for the concentration at which binding is half-saturated.

For the molecule `NCCO` [ethanolamine], the dissociation constant (Kd) stood at 7.88 ± 1.88 µM.
